Measurements from the kinase profiling compilation of Christmann-Franck et al. (2016).

Experiments:
PIM1 (human) [1] = target: PIM1 (human) (UniProt P11309); test: SelectScreen, TR FRET
PIM2 (human) [2] = target: PIM2 (human) (UniProt Q9P1W9); test: SelectScreen, TR FRET
MAP4K2 (human) = MAP4K2 (human) (UniProt Q12851); test: KINOMEscan competition binding; details: compound 10.0 µM
CDK16 (human) = CDK16 (human) (UniProt Q00536); test: KINOMEscan competition binding; details: compound 10.0 µM
RPS6KA1 KD2 (human) = RPS6KA1 KD2 (human) (UniProt Q15418); test: KINOMEscan competition binding; details: compound 10.0 µM
CSNK1E (human) = CSNK1E (human) (UniProt P49674); test: KINOMEscan competition binding; details: compound 10.0 µM
DAPK2 (human) = DAPK2 (human) (UniProt Q9UIK4); test: KINOMEscan competition binding; details: compound 10.0 µM
CSNK2A2 (human) = CSNK2A2 (human) (UniProt P19784); test: KINOMEscan competition binding; details: compound 10.0 µM
MAPKAPK5 (human) = MAPKAPK5 (human) (UniProt Q8IW41); test: KINOMEscan competition binding; details: compound 10.0 µM
Chain of MAPKAPK5 (human) (Q8IW41 whole entry, looked up): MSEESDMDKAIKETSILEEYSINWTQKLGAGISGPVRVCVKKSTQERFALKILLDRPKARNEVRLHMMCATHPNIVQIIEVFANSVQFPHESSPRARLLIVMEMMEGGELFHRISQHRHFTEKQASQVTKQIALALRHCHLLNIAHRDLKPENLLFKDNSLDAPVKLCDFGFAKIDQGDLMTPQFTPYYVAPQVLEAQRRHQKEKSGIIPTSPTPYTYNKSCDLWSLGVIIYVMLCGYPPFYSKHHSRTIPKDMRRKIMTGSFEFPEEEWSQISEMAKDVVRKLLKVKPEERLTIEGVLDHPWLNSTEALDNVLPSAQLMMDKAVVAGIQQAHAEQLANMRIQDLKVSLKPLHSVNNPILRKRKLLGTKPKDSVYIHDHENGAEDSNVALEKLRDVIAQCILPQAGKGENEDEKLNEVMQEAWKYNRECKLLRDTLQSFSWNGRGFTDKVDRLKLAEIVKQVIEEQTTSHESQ

HIPK1 (human) = HIPK1 (human) (UniProt Q86Z02); test: KINOMEscan competition binding; details: compound 10.0 µM
TGFBR2 (human) = TGFBR2 (human) (UniProt P37173); test: KINOMEscan competition binding; details: compound 10.0 µM
MAP3K7 (human) = MAP3K7 (human) (UniProt O43318); test: KINOMEscan competition binding; details: compound 10.0 µM
ANKK1 (human) = ANKK1 (human) (UniProt Q8NFD2); test: KINOMEscan competition binding; details: compound 10.0 µM
Chain of ANKK1 (human) (Q8NFD2 whole entry, looked up): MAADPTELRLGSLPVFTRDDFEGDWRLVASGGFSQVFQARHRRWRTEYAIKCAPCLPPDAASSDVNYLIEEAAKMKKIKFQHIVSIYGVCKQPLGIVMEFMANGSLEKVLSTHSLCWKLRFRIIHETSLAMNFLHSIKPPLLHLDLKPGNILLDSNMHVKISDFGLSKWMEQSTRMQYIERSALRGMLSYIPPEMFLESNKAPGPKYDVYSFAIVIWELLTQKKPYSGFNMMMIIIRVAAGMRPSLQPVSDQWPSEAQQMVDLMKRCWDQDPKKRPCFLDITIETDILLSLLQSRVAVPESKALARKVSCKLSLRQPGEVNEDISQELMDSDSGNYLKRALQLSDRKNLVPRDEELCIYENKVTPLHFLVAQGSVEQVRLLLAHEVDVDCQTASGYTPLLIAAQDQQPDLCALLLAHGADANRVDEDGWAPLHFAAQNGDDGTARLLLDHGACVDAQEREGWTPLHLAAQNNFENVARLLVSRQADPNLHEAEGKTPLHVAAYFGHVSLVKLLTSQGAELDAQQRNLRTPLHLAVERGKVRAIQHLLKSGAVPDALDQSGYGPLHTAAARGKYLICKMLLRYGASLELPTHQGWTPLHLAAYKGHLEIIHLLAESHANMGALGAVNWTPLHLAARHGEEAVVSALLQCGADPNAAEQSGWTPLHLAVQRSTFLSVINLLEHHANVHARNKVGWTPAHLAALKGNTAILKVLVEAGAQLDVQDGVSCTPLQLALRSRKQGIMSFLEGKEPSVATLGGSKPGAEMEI

STK17A (human) = STK17A (human) (UniProt Q9UEE5); test: KINOMEscan competition binding; details: compound 10.0 µM
DAPK1 (human) = DAPK1 (human) (UniProt P53355); test: KINOMEscan competition binding; details: compound 10.0 µM
PIM1 (human) [3] = target: PIM1 (human) (UniProt P11309); test: KINOMEscan competition binding; details: compound 10.0 µM
STK24 (human) = STK24 (human) (UniProt Q9Y6E0); test: KINOMEscan competition binding; details: compound 10.0 µM
ACVR2B (human) = ACVR2B (human) (UniProt Q13705); test: KINOMEscan competition binding; details: compound 10.0 µM
Chain of ACVR2B (human) (Q13705 whole entry, looked up): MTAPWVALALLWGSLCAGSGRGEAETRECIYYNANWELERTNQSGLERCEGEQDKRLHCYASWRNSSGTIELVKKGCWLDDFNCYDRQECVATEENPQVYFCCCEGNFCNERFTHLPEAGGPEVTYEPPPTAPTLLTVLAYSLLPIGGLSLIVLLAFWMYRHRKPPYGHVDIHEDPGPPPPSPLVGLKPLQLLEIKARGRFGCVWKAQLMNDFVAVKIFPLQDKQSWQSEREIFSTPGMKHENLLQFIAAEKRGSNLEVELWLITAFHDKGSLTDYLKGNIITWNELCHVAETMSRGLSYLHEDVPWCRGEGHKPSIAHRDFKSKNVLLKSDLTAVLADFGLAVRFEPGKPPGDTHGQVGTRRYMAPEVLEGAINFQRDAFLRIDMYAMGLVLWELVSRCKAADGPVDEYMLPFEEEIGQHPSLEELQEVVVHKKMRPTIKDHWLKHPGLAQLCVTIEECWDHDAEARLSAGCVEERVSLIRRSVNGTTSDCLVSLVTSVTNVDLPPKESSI

RPS6KA6 KD2 (human) = RPS6KA6 KD2 (human) (UniProt Q9UK32); test: KINOMEscan competition binding; details: compound 10.0 µM
PIM3 (human) = PIM3 (human) (UniProt Q86V86); test: KINOMEscan competition binding; details: compound 10.0 µM
RPS6KA2 KD2 (human) = RPS6KA2 KD2 (human) (UniProt Q15349); test: KINOMEscan competition binding; details: compound 10.0 µM
Chain of RPS6KA2 KD2 (human) (Q15349 whole entry, looked up): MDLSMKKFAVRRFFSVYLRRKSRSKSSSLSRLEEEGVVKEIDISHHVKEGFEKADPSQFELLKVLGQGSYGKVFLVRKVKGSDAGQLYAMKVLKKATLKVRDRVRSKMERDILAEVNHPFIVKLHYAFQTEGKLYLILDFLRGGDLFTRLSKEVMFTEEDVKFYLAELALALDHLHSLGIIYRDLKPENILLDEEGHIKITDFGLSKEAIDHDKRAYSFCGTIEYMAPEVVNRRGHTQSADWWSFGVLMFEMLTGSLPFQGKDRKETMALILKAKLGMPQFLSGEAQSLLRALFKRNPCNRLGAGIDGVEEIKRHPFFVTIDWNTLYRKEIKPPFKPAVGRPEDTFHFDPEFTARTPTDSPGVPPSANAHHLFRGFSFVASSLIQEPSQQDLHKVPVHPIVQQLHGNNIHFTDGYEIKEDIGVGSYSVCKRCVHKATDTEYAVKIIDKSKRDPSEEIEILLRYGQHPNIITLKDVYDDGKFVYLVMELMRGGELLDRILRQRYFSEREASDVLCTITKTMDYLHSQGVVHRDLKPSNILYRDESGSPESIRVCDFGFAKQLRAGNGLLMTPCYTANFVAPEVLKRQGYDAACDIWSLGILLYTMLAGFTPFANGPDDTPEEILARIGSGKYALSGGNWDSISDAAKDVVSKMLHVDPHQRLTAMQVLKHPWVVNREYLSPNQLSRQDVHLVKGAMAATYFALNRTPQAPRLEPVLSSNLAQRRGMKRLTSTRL

PIM2 (human) [4] = target: PIM2 (human) (UniProt Q9P1W9); test: KINOMEscan competition binding; details: compound 10.0 µM
[5] = target: JAK1 JH2 pseudokinase (human) (UniProt P23458); test: KINOMEscan competition binding; details: compound 10.0 µM
DYRK1B (human) = DYRK1B (human) (UniProt Q9Y463); test: KINOMEscan competition binding; details: compound 10.0 µM
Chain of DYRK1B (human) (Q9Y463 whole entry, looked up): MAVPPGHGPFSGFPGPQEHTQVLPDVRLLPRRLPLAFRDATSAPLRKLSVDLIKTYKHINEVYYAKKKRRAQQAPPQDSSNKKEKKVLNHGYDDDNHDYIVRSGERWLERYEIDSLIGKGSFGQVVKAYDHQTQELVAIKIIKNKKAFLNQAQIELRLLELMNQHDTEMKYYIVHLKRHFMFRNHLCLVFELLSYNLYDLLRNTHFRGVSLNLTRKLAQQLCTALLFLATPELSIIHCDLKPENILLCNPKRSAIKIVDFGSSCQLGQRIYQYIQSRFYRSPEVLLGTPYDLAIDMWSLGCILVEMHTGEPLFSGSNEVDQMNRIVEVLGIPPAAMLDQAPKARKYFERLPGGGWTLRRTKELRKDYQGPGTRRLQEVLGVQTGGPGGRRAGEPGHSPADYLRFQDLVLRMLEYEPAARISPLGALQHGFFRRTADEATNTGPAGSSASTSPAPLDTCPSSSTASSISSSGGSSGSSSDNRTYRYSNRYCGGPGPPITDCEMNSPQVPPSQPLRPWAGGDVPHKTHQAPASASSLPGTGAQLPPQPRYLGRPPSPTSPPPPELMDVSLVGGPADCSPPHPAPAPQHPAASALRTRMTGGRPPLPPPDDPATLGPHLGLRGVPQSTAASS

MAP2K3 (human) = MAP2K3 (human) (UniProt P46734); test: KINOMEscan competition binding; details: compound 10.0 µM
GSK3A (human) = GSK3A (human) (UniProt P49840); test: KINOMEscan competition binding; details: compound 10.0 µM
PLK4 (human) = PLK4 (human) (UniProt O00444); test: KINOMEscan competition binding; details: compound 10.0 µM
GSK3B (human) = GSK3B (human) (UniProt P49841); test: KINOMEscan competition binding; details: compound 10.0 µM
RIPK4 (human) = RIPK4 (human) (UniProt P57078); test: KINOMEscan competition binding; details: compound 10.0 µM
STK17B (human) = STK17B (human) (UniProt O94768); test: KINOMEscan competition binding; details: compound 10.0 µM
[6] = target: TYK2 JH2 pseudokinase (human) (UniProt P29597); test: KINOMEscan competition binding; details: compound 10.0 µM
Chain of TYK2 JH2 pseudokinase (human) (P29597 whole entry, looked up): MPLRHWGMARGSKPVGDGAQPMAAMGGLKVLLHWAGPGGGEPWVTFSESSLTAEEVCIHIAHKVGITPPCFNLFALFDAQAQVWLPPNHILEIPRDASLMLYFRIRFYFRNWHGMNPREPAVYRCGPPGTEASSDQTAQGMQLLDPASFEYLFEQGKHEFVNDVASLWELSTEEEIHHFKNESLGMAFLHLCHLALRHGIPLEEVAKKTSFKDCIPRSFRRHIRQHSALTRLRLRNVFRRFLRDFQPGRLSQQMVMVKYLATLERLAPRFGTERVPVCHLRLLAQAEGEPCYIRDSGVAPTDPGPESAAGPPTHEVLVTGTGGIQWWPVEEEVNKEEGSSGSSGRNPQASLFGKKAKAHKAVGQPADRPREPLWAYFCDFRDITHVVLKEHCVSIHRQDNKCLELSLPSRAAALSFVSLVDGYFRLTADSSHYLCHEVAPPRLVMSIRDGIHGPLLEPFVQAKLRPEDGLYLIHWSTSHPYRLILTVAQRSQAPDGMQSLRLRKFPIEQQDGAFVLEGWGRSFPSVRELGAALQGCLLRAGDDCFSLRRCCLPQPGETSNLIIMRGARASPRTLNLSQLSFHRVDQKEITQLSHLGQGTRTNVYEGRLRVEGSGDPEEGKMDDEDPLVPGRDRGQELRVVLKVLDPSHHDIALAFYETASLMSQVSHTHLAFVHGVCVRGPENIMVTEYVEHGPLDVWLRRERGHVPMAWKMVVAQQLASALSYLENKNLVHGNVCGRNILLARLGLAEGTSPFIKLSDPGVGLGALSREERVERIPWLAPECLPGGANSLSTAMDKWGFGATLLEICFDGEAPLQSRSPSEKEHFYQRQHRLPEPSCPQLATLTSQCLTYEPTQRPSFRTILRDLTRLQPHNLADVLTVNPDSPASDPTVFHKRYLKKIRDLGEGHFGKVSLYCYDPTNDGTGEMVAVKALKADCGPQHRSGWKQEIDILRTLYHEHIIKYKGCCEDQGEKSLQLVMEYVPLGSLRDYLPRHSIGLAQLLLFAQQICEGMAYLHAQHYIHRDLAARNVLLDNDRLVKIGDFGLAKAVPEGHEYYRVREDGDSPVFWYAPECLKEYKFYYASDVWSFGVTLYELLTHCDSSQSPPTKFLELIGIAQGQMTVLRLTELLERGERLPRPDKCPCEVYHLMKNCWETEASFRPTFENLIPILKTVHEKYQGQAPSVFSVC

TLK1 (human) = TLK1 (human) (UniProt Q9UKI8); test: KINOMEscan competition binding; details: compound 10.0 µM

Chain of PIM1 (human) (P11309 whole entry, looked up): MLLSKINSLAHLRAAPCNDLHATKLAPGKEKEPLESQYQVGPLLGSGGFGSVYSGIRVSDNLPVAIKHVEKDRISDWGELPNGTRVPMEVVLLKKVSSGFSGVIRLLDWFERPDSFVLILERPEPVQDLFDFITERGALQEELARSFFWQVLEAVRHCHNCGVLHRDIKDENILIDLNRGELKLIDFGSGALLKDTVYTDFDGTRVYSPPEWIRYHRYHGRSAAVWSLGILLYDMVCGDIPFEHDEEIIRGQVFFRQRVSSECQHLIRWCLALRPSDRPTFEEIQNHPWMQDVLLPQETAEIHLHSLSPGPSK
Chain of PIM2 (human) (Q9P1W9 whole entry, looked up): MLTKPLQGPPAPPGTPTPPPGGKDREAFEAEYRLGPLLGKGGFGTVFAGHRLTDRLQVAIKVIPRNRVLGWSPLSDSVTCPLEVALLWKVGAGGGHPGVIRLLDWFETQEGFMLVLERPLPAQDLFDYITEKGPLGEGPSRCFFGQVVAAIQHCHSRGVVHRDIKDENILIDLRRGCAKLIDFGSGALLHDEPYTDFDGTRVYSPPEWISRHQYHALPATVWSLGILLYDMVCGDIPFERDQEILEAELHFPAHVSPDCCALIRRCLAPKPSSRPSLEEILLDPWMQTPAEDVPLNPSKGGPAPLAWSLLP

N=C1NC(=O)/C(=C/c2ccc(-c3ccc4c(C(=O)Nc5ccc(N6CCNCC6)cc5)cccc4c3)o2)S1
IC50 (PIM1 (human) [1]): 131 nM
IC50 (PIM2 (human) [2]): 115 nM
kinase still bound, per cent of control (MAP4K2 (human)): 26%
kinase still bound, per cent of control (CDK16 (human)): 24%
kinase still bound, per cent of control (RPS6KA1 KD2 (human)): 17%
kinase still bound, per cent of control (CSNK1E (human)): 15%
kinase still bound, per cent of control (DAPK2 (human)): 24%
kinase still bound, per cent of control (CSNK2A2 (human)): 33%
kinase still bound, per cent of control (MAPKAPK5 (human)): 12%
kinase still bound, per cent of control (HIPK1 (human)): 0.25%
kinase still bound, per cent of control (TGFBR2 (human)): 5.7%
kinase still bound, per cent of control (MAP3K7 (human)): 2.6%
kinase still bound, per cent of control (ANKK1 (human)): 25%
kinase still bound, per cent of control (STK17A (human)): 0.1%
kinase still bound, per cent of control (DAPK1 (human)): 12%
kinase still bound, per cent of control (PIM1 (human) [3]): 6.4%
kinase still bound, per cent of control (STK24 (human)): 23%
kinase still bound, per cent of control (ACVR2B (human)): 33%
kinase still bound, per cent of control (RPS6KA6 KD2 (human)): 22%
kinase still bound, per cent of control (PIM3 (human)): 8.2%
kinase still bound, per cent of control (RPS6KA2 KD2 (human)): 26%
kinase still bound, per cent of control (PIM2 (human) [4]): 0.65%
kinase still bound, per cent of control [5]: 32%
kinase still bound, per cent of control (DYRK1B (human)): 10%
kinase still bound, per cent of control (MAP2K3 (human)): 4.6%
kinase still bound, per cent of control (GSK3A (human)): 18%
kinase still bound, per cent of control (PLK4 (human)): 3.8%
kinase still bound, per cent of control (GSK3B (human)): 34%
kinase still bound, per cent of control (RIPK4 (human)): 1.3%
kinase still bound, per cent of control (STK17B (human)): 0.4%
kinase still bound, per cent of control [6]: 8.8%
kinase still bound, per cent of control (TLK1 (human)): 12%
